What was measured:
[1] = biological target: Carbonic anhydrase 2 (Homo sapiens, UniProt P00918); assay: Inhibition of human recombinant carbonic anhydrase 2 preincubated for 15 mins by CO2 hydration stopped-flow assay
[2] = biological target: Carbonic anhydrase 1 (Homo sapiens, UniProt P00915); assay: Inhibition of human recombinant carbonic anhydrase 1 preincubated for 15 mins by CO2 hydration stopped-flow assay
[3] = organism: Homo sapiens; assay: Selectivity ratio of Ki for human carbonic anhydrase 2 to Ki for human carbonic anhydrase 9
[4] = biological target: Carbonic anhydrase 12 (Homo sapiens, UniProt O43570); assay: Inhibition of human catalytic domain of carbonic anhydrase 12 preincubated for 15 mins by CO2 hydration stopped-flow assay
Sequence of Carbonic anhydrase 12 (O43570 whole entry, the tested form may be a part): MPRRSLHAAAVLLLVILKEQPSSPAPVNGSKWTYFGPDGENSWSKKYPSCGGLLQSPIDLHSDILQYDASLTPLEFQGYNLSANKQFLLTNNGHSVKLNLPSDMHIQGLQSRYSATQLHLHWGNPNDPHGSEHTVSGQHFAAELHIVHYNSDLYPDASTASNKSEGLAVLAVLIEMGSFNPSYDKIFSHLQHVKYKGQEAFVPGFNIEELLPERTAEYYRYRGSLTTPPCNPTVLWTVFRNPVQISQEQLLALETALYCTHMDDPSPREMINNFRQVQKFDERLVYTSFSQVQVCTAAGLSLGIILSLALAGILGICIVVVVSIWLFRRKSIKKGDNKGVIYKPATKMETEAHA

[5] = organism: Homo sapiens; assay: Selectivity ratio of Ki for human carbonic anhydrase 1 to Ki for human carbonic anhydrase 9
[6] = biological target: Carbonic anhydrase 9 (Homo sapiens, UniProt Q16790); assay: Inhibition of human catalytic domain of carbonic anhydrase 9 preincubated for 15 mins by CO2 hydration stopped-flow assay

Sequence of Carbonic anhydrase 1 (P00915 whole entry): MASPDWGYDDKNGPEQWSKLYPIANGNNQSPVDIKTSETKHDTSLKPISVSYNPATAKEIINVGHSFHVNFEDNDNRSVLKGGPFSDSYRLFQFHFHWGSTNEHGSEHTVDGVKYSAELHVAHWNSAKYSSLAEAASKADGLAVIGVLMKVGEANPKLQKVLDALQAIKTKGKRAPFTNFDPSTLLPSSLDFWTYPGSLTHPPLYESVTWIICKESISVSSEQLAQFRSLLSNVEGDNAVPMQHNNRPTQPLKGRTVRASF

SMILES | Ki [1] [nM] | Ki [2] [nM] | Ratio Ki [3] | Ki [4] [nM] | Ratio Ki [5] | Ki [6] [nM]
C=C(Cl)CN(CC(=C)Cl)S(=O)(=O)c1ccc(N)cc1 | 5000 | 6800 | 68.2 | 79.8 | 92.8 | 73.2
C=C(C)CNS(=O)(=O)c1ccc(N)cc1 | 4710 | 7140 | 1.4 | 1280 | 2.1 | 3460
NS(=O)(=O)c1ccc(Nc2nc(Cl)nc(NCCO)n2)cc1 | – | – | 23.1 | – | 1460 | –
Cc1ccc(S(=O)(=O)Nc2ccccc2)cc1 | 395 | 419 | – | – | – | –
NS(=O)(=O)c1ccc2c(c1)CCCN2 | 78.9 | 192 | 1.6 | 80.7 | 3.8 | 50.5
CC(F)CNc1ccc(S(N)(=O)=O)cc1 (configuration not stated) | 57.6 | 175 | 1.3 | 73.9 | 4 | 43.5

Continued by falling Ki [1], values first:

Ki [1] [nM] | Ki [2] [nM] | Ratio Ki [3] | Ki [4] [nM] | Ratio Ki [5] | Ki [6] [nM] | SMILES
5180 | 5630 | 57.5 | 96 | 62 | 90 | C=C(Cl)CNS(=O)(=O)c1ccc(N)cc1
4600 | 4800 | 1 | 1100 | 1.1 | 4400 | CC(=O)Nc1ccc(S(=O)(=O)NCC(C)F)cc1 (configuration not stated)
4230 | 4220 | 2 | 1140 | 2 | 2120 | Nc1ccc(S(=O)(=O)NCCC(F)F)cc1
3460 | 5140 | 1.7 | 1840 | 2.5 | 2080 | CCCNS(=O)(=O)c1ccc(N)cc1
2340 | 2080 | 1.7 | 966 | 1.5 | 1400 | C=CCNc1ccc(S(N)(=O)=O)cc1
1400 | 5180 | 0.6 | 1520 | 2.1 | 2470 | CC(F)(Cl)CNS(=O)(=O)c1ccc(N)cc1 (configuration not stated)
799 | 6760 | 0.3 | 1950 | 2.7 | 2470 | Nc1ccc(S(=O)(=O)NCCC(F)Cl)cc1 (configuration not stated)
431 | 637 | 3.2 | 298 | 4.7 | 136 | CC1CN(C)S(=O)(=O)c2ccc(N)cc21 (configuration not stated)
85.3 | 151 | 1.8 | 79.4 | 3.2 | 47 | CC(F)(F)CNS(=O)(=O)c1ccc(N)cc1
75 | 174 | 0.9 | 39.7 | 2.1 | – | CC(C)(F)CNS(=O)(=O)c1ccc(N)cc1

Source: ChEMBL document CHEMBL2331479, “Superacid synthesis of halogen containing N-substituted-4-aminobenzene sulfonamides: new selective tumor-associated carbonic anhydrase inhibitors” (Bioorg Med Chem, 2013)
